Patent publication EP4285895A1, “NITROFURANTOIN ORAL DOSAGE FORM” (Adalvo Limited, priority 2022, dated 2023)
≈ marks a conversion by molar mass, not a printed value.

Assay: physchem

Work on O=C1CN(N=Cc2ccc([N+](=O)[O-])o2)C(=O)N1 [Macrocrystals, 1-[[[5-nitro-2-furanyl]methylene]amino]-2,4-imidazolidinedione] yielded a solubility (0.01N HCl, simulated gastric fluid) of 140 µg/mL (≈ 588 µM), a solubility (0.1N HCl, simulated gastric fluid) of 140 µg/mL (≈ 588 µM) and a solubility (acetate buffer, pH 4.5, aqueous buffer) of 50 µg/mL (≈ 210 µM). It also gave a solubility (phosphate buffer, pH 6.8, aqueous buffer) of 200 µg/mL (≈ 840 µM), a solubility (phosphate buffer, pH 7.5, aqueous buffer) of 620 µg/mL (≈ 2600 µM) and a solubility (water) of 160 µg/mL (≈ 672 µM).
